In test [1] the target is T1, F508delCFTR (Homo sapiens, UniProt P13569, DEL508-508).
T1 construct: expressed in transfected cells; host or cells: CFBE41o- human lung-derived epithelial cell line, doxycycline-inducible expression
Put plainly: Cell Surface Expression-Horse Radish Peroxidase (CSE-HRP) assay in CFBE41o-F508delCFTR-HRP cells. Type of test: cell-based. The note with it: for EC50: CFBE41o-F508delCFTR-HRP cells, 18-24 hours at 33° C., luminescence; for Maximum % activity (with co-corrector) / Maximum % activity (without co-corrector): normalized to on-plate positive control corrector (2 μM). A digest of the protocol:
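CFBE41o- cells expressing F508delCFTR with HRP in the fourth exofacial loop were doxycycline-induced (0.5 μg/mL) for 68–72 h, then exposed to correctors for 18–24 h at 33 °C, with or without 2 μM co-corrector. Surface HRP was read by luminol luminescence, and % activity was normalized to the on-plate positive control; EC50 came from a variable-slope sigmoidal fit (8 points, 3-fold dilution, 20 or 30 μM top).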

In test [2] the target is T2, F508del/F508del CFTR (Homo sapiens, UniProt P13569, DEL508-508).
T2 construct: cells isolated from CF patients with the homozygous mutation; endogenous in cells; host or cells: primary human bronchial epithelial (hBE) cells from CF patients homozygous for F508del
T2 sequence (P13569 with tags, fused parts or gaps DEL508-508): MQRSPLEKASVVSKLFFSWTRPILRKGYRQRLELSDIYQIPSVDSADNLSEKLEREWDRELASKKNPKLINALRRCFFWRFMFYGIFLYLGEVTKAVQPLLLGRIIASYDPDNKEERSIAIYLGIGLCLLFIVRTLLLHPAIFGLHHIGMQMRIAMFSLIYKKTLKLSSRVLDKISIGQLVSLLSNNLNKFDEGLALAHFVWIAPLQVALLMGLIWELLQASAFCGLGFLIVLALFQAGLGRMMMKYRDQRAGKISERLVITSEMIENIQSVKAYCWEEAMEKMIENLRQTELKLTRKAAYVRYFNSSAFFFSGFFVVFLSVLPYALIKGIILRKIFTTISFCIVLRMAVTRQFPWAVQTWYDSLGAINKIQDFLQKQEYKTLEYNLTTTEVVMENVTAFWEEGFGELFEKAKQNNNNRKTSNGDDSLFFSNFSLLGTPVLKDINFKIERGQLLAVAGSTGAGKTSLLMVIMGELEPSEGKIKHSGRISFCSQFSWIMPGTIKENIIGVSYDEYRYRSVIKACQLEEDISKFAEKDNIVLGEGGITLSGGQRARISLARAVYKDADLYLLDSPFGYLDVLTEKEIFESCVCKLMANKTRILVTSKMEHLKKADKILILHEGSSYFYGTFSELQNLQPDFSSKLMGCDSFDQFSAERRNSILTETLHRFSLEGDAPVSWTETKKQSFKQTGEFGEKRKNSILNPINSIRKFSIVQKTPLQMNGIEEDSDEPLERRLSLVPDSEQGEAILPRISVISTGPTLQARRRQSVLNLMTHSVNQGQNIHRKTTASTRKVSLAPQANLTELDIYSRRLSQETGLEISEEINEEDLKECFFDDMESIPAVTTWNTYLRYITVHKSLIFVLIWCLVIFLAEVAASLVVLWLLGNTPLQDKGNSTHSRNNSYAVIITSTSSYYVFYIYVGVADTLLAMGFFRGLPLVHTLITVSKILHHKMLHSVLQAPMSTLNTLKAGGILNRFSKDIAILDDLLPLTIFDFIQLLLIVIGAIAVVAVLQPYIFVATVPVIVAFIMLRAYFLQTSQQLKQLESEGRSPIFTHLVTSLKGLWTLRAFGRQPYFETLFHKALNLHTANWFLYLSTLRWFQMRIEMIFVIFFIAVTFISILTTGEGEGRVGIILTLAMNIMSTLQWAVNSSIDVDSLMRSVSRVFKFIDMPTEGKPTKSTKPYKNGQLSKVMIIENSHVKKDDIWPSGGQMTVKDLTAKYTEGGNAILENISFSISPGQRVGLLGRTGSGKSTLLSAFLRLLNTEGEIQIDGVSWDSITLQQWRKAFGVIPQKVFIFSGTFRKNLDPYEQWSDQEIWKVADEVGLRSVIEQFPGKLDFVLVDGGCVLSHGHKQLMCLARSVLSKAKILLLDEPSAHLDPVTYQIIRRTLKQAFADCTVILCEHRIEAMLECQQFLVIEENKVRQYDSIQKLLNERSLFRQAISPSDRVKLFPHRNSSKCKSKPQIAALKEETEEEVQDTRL
Put plainly: Trans-Epithelial Current Clamp (TECC) assay using primary human bronchial epithelial cells. Type of test: cell-based. The note with it: for Emax (% Dual): maximum percent activity relative to positive control (co-corrector 0.15 μM + potentiator 0.45 μM = 100%), primary hBE cells F508del/F508del; for EC50: primary hBE cells homozygous F508del/F508del, test C2 corrector with co-corrector and potentiator, 18-24 hours at 37° C., equivalent CFTR current (IEQ)/AUC. In short, it runs like this: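 F508del/F508del primary hBE cells grown 35 days at air-liquid interface were treated basolaterally with C2 correctors plus fixed co-corrector and potentiator for 18-24 h at 37° C. TECC-24 current clamp at 36.5° C in HEPES-buffered F-12 Coon's, pH 7.4; equivalent current IEQ=VT/RT, plus AUC between forskolin peak and bumetanide.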

Setting [3] is: with co-corrector (2 μM), read-out: EC50 (with co-corrector).
Setting [4] is: without co-corrector, read-out: EC50 (without co-corrector).

Where two headings read alike, the source gives them in different places.

T1 sequence (P13569 with tags, fused parts or gaps DEL508-508): as above

For the molecule `CCOc1cccc([C@H]2C[C@@]2(C(=O)NS(=O)(=O)c2cccc3nc(C)ccc23)c2cc(C)ccc2OC)n1` [Example 55, (1S,2S)-2-(6-ethoxypyridin-2-yl)-1-(2-methoxy-5-methylphenyl)-N-(2-methylquinoline-5-sulfonyl)cyclopropane-1-carboxamide], the results for the EC50 in test [1] (setting [3]), in test [1] (setting [4]) and in test [2] were 339 nM, 1000 nM and 5.86 nM, respectively. Moreover, the “Emax (% Dual)” value in test [2] is 341 % Dual.

For `CCOc1cccc([C@@H]2C[C@]2(C(=O)NS(=O)(=O)c2cccc3nc(C)ccc23)c2cc(C)ccc2OC)n1` [Example 56, (1R,2R)-2-(6-ethoxypyridin-2-yl)-1-(2-methoxy-5-methylphenyl)-N-(2-methylquinoline-5-sulfonyl)cyclopropane-1-carboxamide], the results for the EC50 in test [1] (setting [3]), in test [1] (setting [4]) and in test [2] were 386 nM, 890 nM and 8.5 nM, respectively. For the same molecule, in test [1] (with co-corrector (2 μM)), the “Maximum % activity (with co-corrector)” value is given as 917%. Moreover, the “Maximum % activity (without co-corrector)” value in test [1] (without co-corrector) came out at 370%. Also, the “Emax (% Dual)” value in test [2] was 290 % Dual.

Consider `COc1ccc(C)cc1[C@]1(C(=O)NS(=O)(=O)c2cccc3nc(C)ccc23)C[C@@H]1c1cccc(C(C)C)n1` [Example 57, (1S,2S)-1-(2-methoxy-5-methylphenyl)-N-(2-methylquinoline-5-sulfonyl)-2-[6-(propan-2-yl)pyridin-2-yl]cyclopropane-1-carboxamide], for which the EC50 in test [1] (setting [3]) worked out at 510 nM; in test [1] (setting [4]), 1130 nM; in test [2], 19.2 nM. Further, the “Emax (% Dual)” value in test [2] is 253 % Dual.

As to `CCOc1ccc([C@H]2C[C@@]2(C(=O)NS(=O)(=O)c2cccc3nc(C)ccc23)c2cc(C)ccc2OC)cn1` [Example 58, (1S,2R)-2-(6-ethoxypyridin-3-yl)-1-(2-methoxy-5-methylphenyl)-N-(2-methylquinoline-5-sulfonyl)cyclopropane-1-carboxamide], the EC50 in test [1] (setting [3]) was 2120 nM; in test [1] (setting [4]) it was 3910 nM; in test [2], 31.4 nM. Besides, the “Emax (% Dual)” value in test [2] is listed as 246 % Dual.

Consider `CCOc1ccc([C@@H]2C[C@]2(C(=O)NS(=O)(=O)c2cccc3nc(C)ccc23)c2cc(C)ccc2OC)cn1` [Example 59, (1R,2S)-2-(6-ethoxypyridin-3-yl)-1-(2-methoxy-5-methylphenyl)-N-(2-methylquinoline-5-sulfonyl)cyclopropane-1-carboxamide], for which the EC50 was 779 nM in test [1] (setting [3]), 1520 nM in test [1] (setting [4]) and 63.8 nM in test [2]. Further, the “Maximum % activity (without co-corrector)” value in test [1] (without co-corrector) turned out to be 438%. For the same molecule, the “Emax (% Dual)” value in test [2] is 161 % Dual.

In the case of `COc1ccc(C)cc1[C@]1(C(=O)NS(=O)(=O)c2cccc3nc(C)ccc23)C[C@@H]1c1cccc(N(C)C)n1` [Example 60, (1S,2S)-2-[6-(dimethylamino)pyridin-2-yl]-1-(2-methoxy-5-methylphenyl)-N-(2-methylquinoline-5-sulfonyl)cyclopropane-1-carboxamide], the EC50 in test [1] (setting [3]) was found to be 1030 nM; in test [1] (setting [4]), 2140 nM; in test [2] it was 6.7 nM. Besides, the “Emax (% Dual)” value in test [2] came to 413 % Dual.

As for `COc1ccc(C)cc1[C@]1(C(=O)NS(=O)(=O)c2cccc3nc(C)ccc23)C[C@@H]1c1ccc(C(C)C)nc1` [Example 67, (1S,2R)-1-(2-methoxy-5-methylphenyl)-N-(2-methylquinoline-5-sulfonyl)-2-[6-(propan-2-yl)pyridin-3-yl]cyclopropane-1-carboxamide], the results for the EC50 in test [1] (setting [3]), in test [1] (setting [4]) and in test [2] were 1610 nM, 3320 nM and 20.7 nM, respectively. For the same molecule, the “Maximum % activity (with co-corrector)” value in test [1] (with co-corrector (2 μM)) is 989%. Also, the “Maximum % activity (without co-corrector)” value in test [1] (without co-corrector) turned out to be 492%. For the same molecule, the “Emax (% Dual)” value in test [2] was 174 % Dual.

For `COc1ccc(C)cc1[C@]1(C(=O)NS(=O)(=O)c2cccc3nc(C)ccc23)C[C@@H]1c1ccc(N(C)C)nc1` [Example 68, (1S,2R)-2-[6-(dimethylamino)pyridin-3-yl]-1-(2-methoxy-5-methylphenyl)-N-(2-methylquinoline-5-sulfonyl)cyclopropane-1-carboxamide], the values for the EC50 in test [1] (setting [3]), in test [1] (setting [4]) and in test [2] were 1120 nM, 2760 nM and 21.1 nM, respectively. Further, in test [1] (without co-corrector), the “Maximum % activity (without co-corrector)” value turned out to be 657%. For the same molecule, in test [2], the “Emax (% Dual)” value is 217 % Dual.

Consider `COc1ccc(C)cc1[C@]1(C(=O)NS(=O)(=O)c2cccc3nc(C)ccc23)C[C@@H]1c1ccc(C(C)C)nn1` [Example 69, (1S,2S)-1-(2-methoxy-5-methylphenyl)-N-(2-methylquinoline-5-sulfonyl)-2-[6-(propan-2-yl)pyridazin-3-yl]cyclopropane-1-carboxamide], for which the concentration giving a half-maximal response (EC50) is 3430 nM in test [1] (setting [3]), 6010 nM in test [1] (setting [4]) and above 300 nM in test [2]. The “Maximum % activity (with co-corrector)” value in test [1] (with co-corrector (2 μM)) came to 495%. The “Maximum % activity (without co-corrector)” value in test [1] (without co-corrector) is 170%. Further, the “Emax (% Dual)” value in test [2] is reported as 111 % Dual.

Consider `COc1ccc(C)cc1[C@]1(C(=O)NS(=O)(=O)c2cccc3nc(C)ccc23)C[C@@H]1c1ccc(C(F)F)nc1` [Example 70, (1S,2R)-2-[6-(difluoromethyl)pyridin-3-yl]-1-(2-methoxy-5-methylphenyl)-N-(2-methylquinoline-5-sulfonyl)cyclopropane-1-carboxamide], for which the EC50 amounted to 2600 nM in test [1] (setting [3]), 4230 nM in test [1] (setting [4]) and 11.8 nM in test [2]. Also, the “Maximum % activity (without co-corrector)” value in test [1] (without co-corrector) is on record as 482%. Moreover, the “Emax (% Dual)” value in test [2] is 291 % Dual.

As to `COc1ccc([C@H]2C[C@@]2(C(=O)NS(=O)(=O)c2cccc3nc(C)ccc23)c2cc(C)ccc2OC)c(C)n1` [Example 72, (1S,2R)-1-(2-methoxy-5-methylphenyl)-2-(6-methoxy-2-methylpyridin-3-yl)-N-(2-methylquinoline-5-sulfonyl)cyclopropane-1-carboxamide], the results for the EC50 in test [1] (setting [3]), in test [1] (setting [4]) and in test [2] were 1540 nM, 3330 nM and 13.6 nM, respectively. Also, in test [1] (without co-corrector), the “Maximum % activity (without co-corrector)” value was 651%. In addition, the “Emax (% Dual)” value in test [2] worked out at 359 % Dual.

As to `COc1ccc(C)cc1[C@]1(C(=O)NS(=O)(=O)c2cccc3nc(C)ccc23)C[C@@H]1c1cnc(OC)c(F)c1` [Example 76, (1S,2R)-2-(5-fluoro-6-methoxypyridin-3-yl)-1-(2-methoxy-5-methylphenyl)-N-(2-methylquinoline-5-sulfonyl)cyclopropane-1-carboxamide], the results for the EC50 in test [1] (setting [3]), in test [1] (setting [4]) and in test [2] were 989 nM, 2140 nM and 2.4 nM, respectively. Also, in test [2], the “Emax (% Dual)” value was 269 % Dual.

For `COc1ccc(C)cc1[C@]1(C(=O)NS(=O)(=O)c2cccc3nc(C)ccc23)C[C@@H]1c1cccc(C(F)F)n1` [Example 77, (1S,2S)-2-[6-(difluoromethyl)pyridin-2-yl]-1-(2-methoxy-5-methylphenyl)-N-(2-methylquinoline-5-sulfonyl)cyclopropane-1-carboxamide], the EC50 in test [1] (setting [3]) was 327 nM; in test [1] (setting [4]), 1660 nM; in test [2] it was 0.4 nM. In test [2], the “Emax (% Dual)” value worked out at 289 % Dual.

With `COc1ccc(C)cc1[C@]1(C(=O)NS(=O)(=O)c2cccc3nc(C)ccc23)C[C@@H]1c1cnc(OC)c(OC)n1` [Example 80, (1S,2S)-2-(5,6-dimethoxypyrazin-2-yl)-1-(2-methoxy-5-methylphenyl)-N-(2-methylquinoline-5-sulfonyl)cyclopropane-1-carboxamide], the concentration for a half-maximal effect (EC50) in test [1] (setting [3]) was determined as 461 nM; in test [1] (setting [4]), 1320 nM; in test [2], 15.8 nM. Moreover, the “Maximum % activity (without co-corrector)” value in test [1] (without co-corrector) is recorded as 925%. Moreover, the “Emax (% Dual)” value in test [2] is 275 % Dual.

For `COc1ccc(C)cc1[C@]1(C(=O)NS(=O)(=O)c2cccc3nc(C)ccc23)C[C@@H]1c1ccc(C)nc1C` [Example 81, (1S,2R)-2-(2,6-dimethylpyridin-3-yl)-1-(2-methoxy-5-methylphenyl)-N-(2-methylquinoline-5-sulfonyl)cyclopropane-1-carboxamide], the EC50 in test [1] (setting [3]) came to 3980 nM; in test [1] (setting [4]), 5780 nM; in test [2], 94.4 nM. For the same molecule, in test [1] (with co-corrector (2 μM)), the “Maximum % activity (with co-corrector)” value came to 876%. Also, in test [1] (without co-corrector), the “Maximum % activity (without co-corrector)” value came out at 476%. Also, the “Emax (% Dual)” value in test [2] was found to be 173 % Dual.

On to `COc1cnc([C@H]2C[C@@]2(C(=O)NS(=O)(=O)c2cccc3nc(C)ccc23)c2cc(C)ccc2OC)c(OC)n1` [Example 82, (1S,2S)-2-(3,5-dimethoxypyrazin-2-yl)-1-(2-methoxy-5-methylphenyl)-N-(2-methylquinoline-5-sulfonyl)cyclopropane-1-carboxamide], for which the EC50 in test [1] (setting [3]) is 351 nM; in test [1] (setting [4]), 730 nM; in test [2], 52.2 nM. Further, the “Maximum % activity (without co-corrector)” value in test [1] (without co-corrector) worked out at 937%. In test [2], the “Emax (% Dual)” value is on record as 210 % Dual.
